Measured values published in patent publication US10662204B2 (PFIZER INC., priority 2018, dated 2020).

Experiments:
[1] = biological target: KRAS G12C (Homo sapiens, UniProt P01116, G12C); test: Cell Activity Assay: accumulation of GDP-bound KRAS G12C in MIAPaCa-2 cells (Raf-1 RBD capture, MSD readout); assay type: cell-based; design: endogenous in cells; host or cells: MIAPaCa-2; conditions: 6 hours, assay limit is 30.00
How it was run: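 MIAPaCa-2 cells exposed 6 h at 37 °C to 3-fold compound dilutions (0.3% DMSO final), then lysed. Active GTP-KRAS captured on Raf-1 RBD-coated plates, detected with anti-pan-Ras and SULFO-TAG secondary by MSD electrochemiluminescence. Signal normalized to DMSO and maximum inhibition; IC50 from 4-parameter fit.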

[2] = biological target: T1, GDP-loaded KRAS (1-169) G12C, C51S, C80L, C118S (Homo sapiens, UniProt P01116, C118S/C51S/C80L/G12C); test: Mass Spectrometry Reactivity Assay (MSRA): covalent adduct of compound and KRAS G12C, Percent Modification; assay type: binding; conditions: for MSRA (% modification) 5.0 μM 0.017 hr / MSRA (% modification) 5.0 μM 0.25 hr: 5.0 μM compound; for MSRA (% modification) 10 μM 0.50 hr / MSRA (% modification) 10 μM 0.25 hr: 10 μM compound
T1 construct: GDP-loaded KRAS (1-169) G12C, C51S, C80L, C118S
How it was run: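 GDP-loaded KRAS(1-169) G12C/C51S/C80L/C118S at 5 μM in 25 mM Hepes pH 7.5, 200 mM NaCl, 5% glycerol incubated at RT with compound (typically 5 or 10 μM final, 1% DMSO). Quenched in formic acid at 1-60 min; intact-protein LC-TOF MS gives % modification = modified/(modified+unmodified).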

Structure (SMILES) | IC50 [1] [µM] | MSRA (% modification) 5.0 μM 0.017 hr [2] [%] | MSRA (% modification) 10 μM 0.50 hr [2] [%] | MSRA (% modification) 5.0 μM 0.25 hr [2] [%] | MSRA (% modification) 10 μM 0.25 hr [2] [%]
C=CC(=O)N1CCN(c2nc(O[C@@H]3CN(CCO)C[C@H]3OC)nc3c(Oc4c(Cl)c(F)cc5[nH]ncc45)nccc23)CC1 [Example 46I, 1-[4-(8-[(5-chloro-6-fluoro-1H-indazol-4-yl)oxy]-2-{[(3R,4R)-1-(2-hydroxy-ethyl)-4-methoxy-pyrrolidin-3-yl]oxy}pyrido [3,4-d]pyrimidin-4-yl)piperazin-1-yl]prop-2-en-1-one] | 0.285 | 70 | – | – | –
C=CC(=O)N1CCN(c2ncnc3c(Oc4c(Cl)c(F)cc5[nH]ncc45)nc(C#N)cc23)CC1 [Example 32A, 4-(4-acryloylpiperazin-1-yl)-8-[(5-chloro-6-fluoro-1H-indazol-4-yl)oxy]pyrido[3,4-d]pyrimidine-6-carbonitrile] | 0.681 | – | 74 | – | –
C=CC(=O)N1CCN(c2nc(N3CC(N(C)C)C3)nc3c(Oc4c(Cl)c(C)cc5[nH]ncc45)nccc23)CC1 [Example 04E, 1-(4-{8-[(5-chloro-6-methyl-1H-indazol-4-yl)oxy]-2-[3-(dimethylamino)azetidin-1-yl]pyrido[3,4-d]pyrimidin-4-yl}piperazin-1-yl)prop-2-en-1-one] | 0.585 | – | 62 | 71 | 60
C=CC(=O)N1CCN(c2nc(O[C@@H]3CN(C)C[C@H]3C)nc3c(Oc4c(Cl)c(F)cc5[nH]ncc45)nc(Cl)cc23)CC1 (racemic) [Example 32G, rac-1-[4-(6-chloro-8-[(5-chloro-6-fluoro-1H-indazol-4-yl)oxy]-2-{[(3S,4R)-1,4-dimethylpyrrolidin-3-yl]oxy}pyrido[3,4-d]pyrimidin-4-yl)piperazin-1-yl]prop-2-en-1-one] | 0.016 | 44 | – | – | –
C=CC(=O)N1CCN(c2nc(O[C@@H]3CN(C)C[C@H]3C(F)F)nc3c(Oc4c(Cl)c(F)cc5[nH]ncc45)nccc23)CC1 (single isomer, unassigned) [Example 58I] | 0.006 | 58 | – | – | –
C=CC(=O)N1CCN(c2nc(O[C@@H]3CN(C)C[C@H]3C(F)F)nc3c(Oc4c(Cl)c(F)cc5[nH]ncc45)nccc23)CC1 (single isomer, unassigned) [Example 59I] | 0.123 | 13 | – | – | –
C#CCN1C[C@@H](OC)[C@H](Oc2nc(N3CCN(C(=O)C=C)CC3)c3ccnc(Oc4c(Cl)c(F)cc5[nH]ncc45)c3n2)C1 [Example 43I, 1-[4-(8-[(5-chloro-6-fluoro-1H-indazol-4-yl)oxy]-2-{[(3R,4R)-4-methoxy-1-(prop-2-yn-1-yl)pyrrolidin-3-yl]oxy}pyrido [3,4-d]pyrimidin-4-yl)piperazin-1-yl]prop-2-en-1-one] | 0.019 | 54 | – | – | –
C=CC(=O)N1CCN(c2nc(OC[C@H]3CCN(C)C3)nc3c(Oc4c(C)ccc5[nH]ncc45)nccc23)CC1 [Example 19E, 1-[4-(8-[(5-methyl-1H-indazol-4-yl)oxy]-2-{[(3S)-1-methylpyrrolidin-3-yl]methoxy}pyrido[3,4-d]pyrimidin-4-yl)piperazin-1-yl]prop-2-en-1-one] | 29.8 | – | – | – | 33
C=CC(=O)N1CCN(c2nc(N3C[C@@](C)(O)[C@@H]3C)nc3c(Oc4c(Cl)c(F)cc5[nH]ncc45)nccc23)CC1 [Example 06J, 1-(4-{8-[(5-chloro-6-fluoro-1H-indazol-4-yl)oxy]-2-[(2S,3R)-3-hydroxy-2,3-dimethylazetidin-1-yl]pyrido[3,4-d]pyrimidin-4-yl}piperazin-1-yl)prop-2-en-1-one] | 0.638 | – | – | 33 | –
C#CCN1C[C@@H](OC)[C@H](Oc2nc(N3CCN(C(=O)C=C)CC3)c3cc(Cl)nc(Oc4c(Cl)c(F)cc5[nH]ncc45)c3n2)C1 [Example 40G, 1-[4-(6-chloro-8-[(5-chloro-6-fluoro-1H-indazol-4-yl)oxy]-2-{[(3R,4R)-4-methoxy-1-(prop-2-yn-1-yl)pyrrolidin-3-yl]oxy}pyrido[3,4-d]pyrimidin-4-yl)piperazin-1-yl]prop-2-en-1-one] | 0.008 | 83 | – | – | –
C=CC(=O)N1CCN(c2nc(O[C@@H]3CN(C)C[C@H]3OC)nc3c(Oc4c(Cl)c(Cl)cc5[nH]ncc45)nc(Cl)cc23)CC1 [Example 29G, 1-[4-(6-chloro-8-[(5,6-dichloro-1H-indazol-4-yl)oxy]-2-{[(3R,4R)-4-methoxy-1-methylpyrrolidin-3-yl]oxy}pyrido[3,4-d]pyrimidin-4-yl)piperazin-1-yl]prop-2-en-1-one] | 0.005 | 82 | – | – | –
C=CC(=O)N1CCN(c2nc(OC[C@H]3C[C@@H](F)CN3C)nc3c(Oc4c(Cl)c(F)cc5[nH]ncc45)nc(Cl)cc23)CC1 [Example 22G, 1-[4-(6-chloro-8-[(5-chloro-6-fluoro-1H-indazol-4-yl)oxy]-2-{[(2R,4R)-4-fluoro-1-methylpyrrolidin-2-yl]methoxy}pyrido[3,4-d]pyrimidin-4-yl)piperazin-1-yl]prop-2-en-1-one] | 0.072 | – | – | – | 81
C=CC(=O)N1CCN(c2nc(O[C@@H]3CN(CC)C[C@H]3OC)nc3c(Oc4c(Cl)c(F)cc5[nH]ncc45)nccc23)CC1 [Example 17H, 1-[4-(8-[(5-chloro-6-fluoro-1H-indazol-4-yl)oxy]-2-{[(3R,4R)-1-ethyl-4-methoxypyrrolidin-3-yl]oxy}pyrido[3,4-d]pyrimidin-4-yl)piperazin-1-yl]prop-2-en-1-on] | 0.026 | 69 | – | – | –
C=CC(=O)N1CCN(c2ncnc3c(Oc4c(F)ccc5[nH]ncc45)nccc23)CC1 [Example 08A, 1-(4-{8-[(5-fluoro-1H-indazol-4-yl)oxy]pyrido[3,4-d]pyrimidin-4-yl}piperazin-1-yl)prop-2-en-1-one] | 11.1 | – | 6 | – | –
C=CC(=O)N1CCN(c2nc(OC[C@@H]3CCCN3C)nc3c(Oc4c(Cl)ccc5[nH]ncc45)cccc23)CC1 [Example 02L, 1-[4-(8-[(5-chloro-1H-indazol-4-yl)oxy]-2-{[(2S)-1-methylpyrrolidin-2-yl]methoxy}quinazolin-4-yl)piperazin-1-yl]prop-2-en-1-one] | 0.146 | – | – | 31 | –
C=CC(=O)N1CCN(c2nc(OC[C@@H]3CC(F)(F)CN3C)nc3c(Oc4c(C)ccc5[nH]ncc45)nccc23)CC1 [Example 07B, 1-[4-(2-{[(2S)-4,4-difluoro-1-methylpyrrolidin-2-yl]methoxy}-8-[(5-methyl-1H-indazol-4-yl)oxy]pyrido[3,4-d]pyrimidin-4-yl)piperazin-1-yl]prop-2-en-1-one] | 6.18 | – | – | – | 15
C=CC(=O)N1CCN(c2nc(NCCC(=O)N(C)C)nc3c(Oc4c(C)ccc5[nH]ncc45)cccc23)CC1 [Example 06F, N^3-{4-(4-acryloylpiperazin-1-yl)-8-[(5-methyl-1H-indazol-4-yl)oxy]quinazolin-2-yl}-N,N-dimethyl-β-alaninamide] | 3.24 | – | 46 | – | –
C=CC(=O)N1CCN(c2nc(Oc3ccc(F)c4c3CN(C)CC4)nc3c(Oc4c(Cl)c(F)cc5[nH]ncc45)nccc23)CC1 [Example 54I, 1-(4-{8-[(5-chloro-6-fluoro-1H-indazol-4-yl)oxy]-2-[(5-fluoro-2-methyl-1,2,3,4-tetrahydro-isoquinolin-8-yl)oxy]pyrido [3,4-d]pyrimidin-4-yl}piperazin-1-yl)prop-2-en-1-one] | 0.019 | 78 | – | – | –
C=CC(=O)N1CCN(c2nc(O[C@@H]3CN(C)C[C@H]3OC)nc3c(Oc4c(Cl)c(F)cc5[nH]ncc45)nccc23)C[C@H]1C [Example 35I, 1-[(2R)-4-(8-[(5-chloro-6-fluoro-1H-indazol-4-yl)oxy]-2-{[(3R,4R)-4-methoxy-1-methyl-pyrrolidin-3-yl]oxy}pyrido [3,4-d]pyrimidin-4-yl)-2-methyl-piperazin-1-yl]prop-2-en-1-one] | 0.155 | 24 | – | – | –
C=CC(=O)N1CCN(c2ncnc3c(Oc4c(C)c(Cl)cc5[nH]ncc45)nccc23)CC1 [Example 14A, 1-(4-{8-[(6-chloro-5-methyl-1H-indazol-4-yl)oxy]pyrido[3,4-d]pyrimidin-4-yl}piperazin-1-yl)prop-2-en-1-one] | 0.545 | – | 67 | 46 | –
C=CC(=O)N1CCN(c2ncnc3c(Oc4c(Cl)c(F)cc5[nH]ncc45)nc(Cl)cc23)C[C@H]1C [Example 37A, 1-[(2R)-4-{6-chloro-8-[(5-chloro-6-fluoro-1H-indazol-4-yl)oxy]pyrido[3,4-d]pyrimidin-4-yl}-2-methylpiperazin-1-yl]prop-2-en-1-one] | 0.622 | – | – | – | 63
C=CC(=O)N1CCN(c2nc(O[C@@H]3CCC[C@H]3N(C)C)nc3c(Oc4c(C)ccc5[nH]ncc45)nccc23)CC1 [Example 11B, 1-[4-(2-{[(1R,2R)-2-(dimethylamino)cyclopentyl]oxy}-8-[(5-methyl-1H-indazol-4-yl)oxy]pyrido[3,4-d]pyrimidin-4-yl)piperazin-1-yl]prop-2-en-1-one] | 4.89 | – | – | – | 21
